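All cell lines were grown in 96-well plates and treated with compound for 48 hours. The concentration for full growth arrest is given as TGI.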
How the values were obtained:
Experiment in all cases: growth of human tumour cells (NCI), 48 h
786-0 renal = system: 786-0 renal
A498 renal = system: A498 renal
A549 NSCLC = system: A549 NSCLC
ACHN renal = system: ACHN renal
BT-549 breast = system: BT-549 breast
CAKI-1 renal = system: CAKI-1 renal
CCRF-CEM leukemia = system: CCRF-CEM leukemia
COLO 205 colon = system: COLO 205 colon
DU-145 prostate = system: DU-145 prostate
EKVX NSCLC = system: EKVX NSCLC
HCC-2998 colon = system: HCC-2998 colon
HCT-116 colon = system: HCT-116 colon
HCT-15 colon = system: HCT-15 colon
HL-60(TB) leukemia = system: HL-60(TB) leukemia
HOP-92 NSCLC = system: HOP-92 NSCLC
HS 578T breast = system: HS 578T breast
HT29 colon = system: HT29 colon
IGROV1 ovarian = system: IGROV1 ovarian
K-562 leukemia = system: K-562 leukemia
KM12 colon = system: KM12 colon
LOX IMVI melanoma = system: LOX IMVI melanoma
M14 melanoma = system: M14 melanoma
MALME-3M melanoma = system: MALME-3M melanoma
MCF7 breast = system: MCF7 breast
MDA-MB-231 breast = system: MDA-MB-231 breast
MDA-MB-435 = system: MDA-MB-435
MDA-N = system: MDA-N
MOLT-4 leukemia = system: MOLT-4 leukemia
NCI-H226 lung = system: NCI-H226 lung
NCI-H23 lung = system: NCI-H23 lung
NCI-H460 lung = system: NCI-H460 lung
NCI-H522 lung = system: NCI-H522 lung
NCI/ADR-RES ovarian = system: NCI/ADR-RES ovarian
OVCAR-3 ovarian = system: OVCAR-3 ovarian
OVCAR-4 ovarian = system: OVCAR-4 ovarian
OVCAR-5 ovarian = system: OVCAR-5 ovarian
OVCAR-8 ovarian = system: OVCAR-8 ovarian
PC-3 prostate = system: PC-3 prostate
RPMI-8226 leukemia = system: RPMI-8226 leukemia
RXF 393 renal = system: RXF 393 renal
SF-268 CNS = system: SF-268 CNS
SF-295 CNS = system: SF-295 CNS
SF-539 CNS = system: SF-539 CNS
SK-MEL-2 melanoma = system: SK-MEL-2 melanoma
SK-MEL-28 melanoma = system: SK-MEL-28 melanoma
SK-MEL-5 melanoma = system: SK-MEL-5 melanoma
SK-OV-3 ovarian = system: SK-OV-3 ovarian
SN12C renal = system: SN12C renal
SNB-19 CNS = system: SNB-19 CNS
SNB-75 CNS = system: SNB-75 CNS
SR leukemia = system: SR leukemia
SW-620 colon = system: SW-620 colon
T-47D breast = system: T-47D breast
U251 CNS = system: U251 CNS
UACC-257 melanoma = system: UACC-257 melanoma
UACC-62 melanoma = system: UACC-62 melanoma
UO-31 renal = system: UO-31 renal
TK-10 renal = system: TK-10 renal

Measured: TGI

CCOC(=O)/C(C(N)=O)=C(/O)c1cnccn1
not listed: TK-10 renal
> 100 µM: all other assays above

CC(C)C(C=O)C(O)(C(F)(F)F)C(F)(F)F (stereo unspecified)
not listed: CCRF-CEM leukemia | IGROV1 ovarian | SF-268 CNS | SN12C renal
> 100 µM: all other assays above
